{"source": "paper PMC11842588", "about": "“A first-in-class selective inhibitor of ERK1/2 and ERK5 overcomes drug resistance with a single-molecule strategy” (Signal Transduction and Targeted Therapy, 2025)", "experiment_in_all_cases": "Kinase profiling", "format_in_all_cases": "biochemical", "key": {"[1]": {"molecular_target": "T1, AAK1(h) (Homo sapiens, UniProt Q2M2I8)", "T1 construct": "purchased Eurofins Cerep SA (KinaseProfiler)", "protocol": "(§1) 380 kinases inhibitory activities of SKLB-D18 were conducted by Eurofins Cerep SA. The result was illustrated by kinase tree (http://www.kinhub.org/kinmap/)."}, "[2]": {"molecular_target": "T2, ARK5(h) (Homo sapiens, UniProt O60285)", "T2 construct": "purchased Eurofins Cerep SA (KinaseProfiler)", "protocol": "as §1"}, "[3]": {"molecular_target": "T3, Axl(h) (Homo sapiens, UniProt P30530)", "T3 construct": "purchased Eurofins Cerep SA (KinaseProfiler)", "protocol": "as §1"}, "[4]": {"molecular_target": "T4, CDK2/cyclinA(h) (Homo sapiens, UniProt P24941)", "T4 construct": "purchased Eurofins Cerep SA (KinaseProfiler)", "protocol": "as §1"}, "[5]": {"molecular_target": "T5, CDK5/p25(h) (Homo sapiens, UniProt Q00535)", "T5 construct": "purchased Eurofins Cerep SA (KinaseProfiler)", "T5 sequence (Q00535 whole entry)": "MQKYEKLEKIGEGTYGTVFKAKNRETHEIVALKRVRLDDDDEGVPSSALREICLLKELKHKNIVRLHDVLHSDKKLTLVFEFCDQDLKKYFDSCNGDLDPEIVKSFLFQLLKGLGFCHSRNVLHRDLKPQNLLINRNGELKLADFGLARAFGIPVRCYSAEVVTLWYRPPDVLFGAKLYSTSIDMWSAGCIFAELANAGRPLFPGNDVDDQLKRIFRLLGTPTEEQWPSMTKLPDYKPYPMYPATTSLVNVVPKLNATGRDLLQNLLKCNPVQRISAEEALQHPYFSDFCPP", "T5 sequence (Q15078 99-307 partner limits assumed)": "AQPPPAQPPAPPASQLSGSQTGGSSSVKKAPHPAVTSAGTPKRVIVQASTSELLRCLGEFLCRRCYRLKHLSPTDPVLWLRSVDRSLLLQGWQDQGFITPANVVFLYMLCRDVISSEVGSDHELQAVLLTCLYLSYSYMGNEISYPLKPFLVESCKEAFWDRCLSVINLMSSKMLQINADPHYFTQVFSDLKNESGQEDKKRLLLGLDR", "protocol": "as §1"}, "[6]": {"molecular_target": "T6, CDK7/cyclinH/MAT1(h) (Homo sapiens, UniProt P50613)", "T6 construct": "purchased Eurofins Cerep SA (KinaseProfiler)", "protocol": "as §1"}, "[7]": {"molecular_target": "T7, CaMKIIδ(h) (Homo sapiens, UniProt Q13557)", "T7 construct": "purchased Eurofins Cerep SA (KinaseProfiler)", "protocol": "as §1"}, "[8]": {"molecular_target": "T8, DAPK2(h) (Homo sapiens, UniProt Q9UIK4)", "T8 construct": "purchased Eurofins Cerep SA (KinaseProfiler)", "T8 sequence (Q9UIK4 whole entry)": "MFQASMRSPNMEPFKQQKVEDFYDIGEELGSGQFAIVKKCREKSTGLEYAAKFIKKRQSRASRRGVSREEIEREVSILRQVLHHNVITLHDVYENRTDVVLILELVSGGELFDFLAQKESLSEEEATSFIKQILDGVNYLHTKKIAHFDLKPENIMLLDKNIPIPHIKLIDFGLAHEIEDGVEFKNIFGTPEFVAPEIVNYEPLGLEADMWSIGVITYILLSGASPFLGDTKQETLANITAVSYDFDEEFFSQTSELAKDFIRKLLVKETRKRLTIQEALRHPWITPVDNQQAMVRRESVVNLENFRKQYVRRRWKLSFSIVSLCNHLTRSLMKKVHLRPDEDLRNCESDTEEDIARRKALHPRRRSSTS", "protocol": "as §1"}, "[9]": {"molecular_target": "T9, FGFR3(h) (Homo sapiens, UniProt P22607)", "T9 construct": "purchased Eurofins Cerep SA (KinaseProfiler)", "protocol": "as §1"}, "[10]": {"molecular_target": "T10, GCN2(h) (Homo sapiens, UniProt Q9P2K8)", "T10 construct": "purchased Eurofins Cerep SA (KinaseProfiler)", "protocol": "as §1"}, "[11]": {"molecular_target": "T11, GRK1(h) (Homo sapiens, UniProt Q15835)", "T11 construct": "purchased Eurofins Cerep SA (KinaseProfiler)", "protocol": "as §1"}, "[12]": {"molecular_target": "T12, GRK4(h) (Homo sapiens, UniProt P32298)", "T12 construct": "purchased Eurofins Cerep SA (KinaseProfiler)", "protocol": "as §1"}, "[13]": {"molecular_target": "T13, GRK7(h) (Homo sapiens, UniProt Q8WTQ7)", "T13 construct": "purchased Eurofins Cerep SA (KinaseProfiler)", "T13 sequence (Q8WTQ7 whole entry)": "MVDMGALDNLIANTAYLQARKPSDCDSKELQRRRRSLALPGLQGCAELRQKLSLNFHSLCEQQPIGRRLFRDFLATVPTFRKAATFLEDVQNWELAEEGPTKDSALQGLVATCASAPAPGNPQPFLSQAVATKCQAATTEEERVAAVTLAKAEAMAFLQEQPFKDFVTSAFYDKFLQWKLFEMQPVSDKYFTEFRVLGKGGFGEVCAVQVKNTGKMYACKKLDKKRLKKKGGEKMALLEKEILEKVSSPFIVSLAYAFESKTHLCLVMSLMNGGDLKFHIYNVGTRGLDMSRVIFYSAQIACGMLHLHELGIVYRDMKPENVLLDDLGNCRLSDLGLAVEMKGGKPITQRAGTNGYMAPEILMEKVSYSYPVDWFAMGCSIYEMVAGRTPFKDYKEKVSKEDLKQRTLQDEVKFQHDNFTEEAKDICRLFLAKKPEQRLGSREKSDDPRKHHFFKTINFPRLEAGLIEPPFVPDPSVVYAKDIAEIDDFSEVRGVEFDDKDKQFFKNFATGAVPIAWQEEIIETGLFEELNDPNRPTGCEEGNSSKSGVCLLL", "protocol": "as §1"}, "[14]": {"molecular_target": "T14, Hck(h) activated (Homo sapiens, UniProt P08631)", "T14 construct": "purchased Eurofins Cerep SA (KinaseProfiler)", "protocol": "as §1"}, "[15]": {"molecular_target": "T15, IR(h), activated (Homo sapiens, UniProt P06213)", "T15 construct": "purchased Eurofins Cerep SA (KinaseProfiler)", "protocol": "as §1"}, "[16]": {"molecular_target": "T16, Itk(h) (Homo sapiens, UniProt Q08881)", "T16 construct": "purchased Eurofins Cerep SA (KinaseProfiler)", "protocol": "as §1"}, "[17]": {"molecular_target": "T17, JNK2α2(h) (Homo sapiens, UniProt P45984)", "T17 construct": "purchased Eurofins Cerep SA (KinaseProfiler)", "protocol": "as §1"}, "[18]": {"molecular_target": "T18, LOK(h) (Homo sapiens, UniProt O94804)", "T18 construct": "purchased Eurofins Cerep SA (KinaseProfiler)", "protocol": "as §1"}, "[19]": {"molecular_target": "T19, Lck(h) activated (Homo sapiens, UniProt P06239)", "T19 construct": "purchased Eurofins Cerep SA (KinaseProfiler)", "protocol": "as §1"}, "[20]": {"molecular_target": "T20, MAK(h) (Homo sapiens, UniProt P20794)", "T20 construct": "purchased Eurofins Cerep SA (KinaseProfiler)", "protocol": "as §1"}, "[21]": {"molecular_target": "T21, MAP4K4(h) (Homo sapiens, UniProt O95819)", "T21 construct": "purchased Eurofins Cerep SA (KinaseProfiler)", "protocol": "as §1"}, "[22]": {"molecular_target": "T22, MATK(h) (Homo sapiens, UniProt P42679)", "T22 construct": "purchased Eurofins Cerep SA (KinaseProfiler)", "protocol": "as §1"}, "[23]": {"molecular_target": "T23, MLK2(h) (Homo sapiens, UniProt Q02779)", "T23 construct": "purchased Eurofins Cerep SA (KinaseProfiler)", "protocol": "as §1"}, "[24]": {"molecular_target": "T24, MRCKγ(h) (Homo sapiens, UniProt Q6DT37)", "T24 construct": "purchased Eurofins Cerep SA (KinaseProfiler)", "T24 sequence (Q6DT37 whole entry)": "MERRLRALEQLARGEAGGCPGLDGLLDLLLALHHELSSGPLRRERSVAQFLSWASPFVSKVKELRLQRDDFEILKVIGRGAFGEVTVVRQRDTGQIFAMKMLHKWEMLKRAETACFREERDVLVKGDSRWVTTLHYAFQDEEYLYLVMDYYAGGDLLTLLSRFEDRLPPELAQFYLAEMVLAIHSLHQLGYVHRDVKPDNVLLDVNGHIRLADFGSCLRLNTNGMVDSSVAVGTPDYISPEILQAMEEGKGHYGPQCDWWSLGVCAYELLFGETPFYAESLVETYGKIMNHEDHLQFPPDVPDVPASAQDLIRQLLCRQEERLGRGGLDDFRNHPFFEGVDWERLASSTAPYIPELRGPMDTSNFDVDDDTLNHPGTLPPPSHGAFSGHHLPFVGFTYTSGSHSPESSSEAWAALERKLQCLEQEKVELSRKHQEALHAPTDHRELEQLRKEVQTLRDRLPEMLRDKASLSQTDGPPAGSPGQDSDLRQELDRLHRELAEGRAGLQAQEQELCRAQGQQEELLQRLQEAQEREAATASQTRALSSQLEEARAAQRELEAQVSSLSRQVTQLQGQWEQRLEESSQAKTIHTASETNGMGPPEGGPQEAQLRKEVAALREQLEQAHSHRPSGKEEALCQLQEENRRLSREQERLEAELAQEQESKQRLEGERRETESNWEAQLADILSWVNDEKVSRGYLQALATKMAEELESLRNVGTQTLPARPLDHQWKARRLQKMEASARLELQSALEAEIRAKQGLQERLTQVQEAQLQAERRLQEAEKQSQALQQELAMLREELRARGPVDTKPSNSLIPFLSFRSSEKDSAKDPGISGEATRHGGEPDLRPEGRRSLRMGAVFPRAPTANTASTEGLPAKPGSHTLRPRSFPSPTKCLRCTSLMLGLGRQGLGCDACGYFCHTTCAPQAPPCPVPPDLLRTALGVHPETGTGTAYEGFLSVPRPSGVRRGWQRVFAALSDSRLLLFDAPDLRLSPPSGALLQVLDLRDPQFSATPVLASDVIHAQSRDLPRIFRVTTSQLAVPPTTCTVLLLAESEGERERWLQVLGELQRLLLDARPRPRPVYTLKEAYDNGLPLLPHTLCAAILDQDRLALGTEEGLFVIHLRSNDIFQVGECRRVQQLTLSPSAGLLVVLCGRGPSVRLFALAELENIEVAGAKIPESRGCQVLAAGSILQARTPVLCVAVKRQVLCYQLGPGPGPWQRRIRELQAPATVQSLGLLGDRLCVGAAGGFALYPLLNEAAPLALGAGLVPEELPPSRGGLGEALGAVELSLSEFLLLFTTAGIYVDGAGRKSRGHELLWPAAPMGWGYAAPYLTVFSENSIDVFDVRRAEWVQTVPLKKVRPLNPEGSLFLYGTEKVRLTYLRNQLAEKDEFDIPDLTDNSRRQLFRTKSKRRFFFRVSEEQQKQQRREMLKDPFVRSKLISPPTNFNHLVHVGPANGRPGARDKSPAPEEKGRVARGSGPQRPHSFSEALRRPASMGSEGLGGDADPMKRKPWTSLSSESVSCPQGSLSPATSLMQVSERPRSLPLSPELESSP", "protocol": "as §1"}, "[25]": {"molecular_target": "T25, PAK1(h) (Homo sapiens, UniProt Q13153)", "T25 construct": "purchased Eurofins Cerep SA (KinaseProfiler)", "T25 sequence (Q13153 whole entry)": "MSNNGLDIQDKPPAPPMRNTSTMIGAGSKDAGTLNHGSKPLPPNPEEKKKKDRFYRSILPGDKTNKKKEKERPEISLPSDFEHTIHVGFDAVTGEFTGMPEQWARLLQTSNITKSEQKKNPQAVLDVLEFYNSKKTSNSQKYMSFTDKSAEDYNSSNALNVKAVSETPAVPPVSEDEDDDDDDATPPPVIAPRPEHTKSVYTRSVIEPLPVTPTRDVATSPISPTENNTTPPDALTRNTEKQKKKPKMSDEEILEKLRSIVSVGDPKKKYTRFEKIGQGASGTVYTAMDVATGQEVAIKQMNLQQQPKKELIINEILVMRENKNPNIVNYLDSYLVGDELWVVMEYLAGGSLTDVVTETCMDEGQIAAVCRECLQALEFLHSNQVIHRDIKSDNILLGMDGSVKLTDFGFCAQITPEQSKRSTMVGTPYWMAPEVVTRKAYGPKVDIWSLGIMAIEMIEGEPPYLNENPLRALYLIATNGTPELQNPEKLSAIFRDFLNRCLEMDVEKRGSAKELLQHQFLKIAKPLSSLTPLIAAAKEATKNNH", "protocol": "as §1"}, "[26]": {"molecular_target": "T26, PDHK2(h) (Homo sapiens, UniProt Q15119)", "T26 construct": "purchased Eurofins Cerep SA (KinaseProfiler)", "protocol": "as §1"}, "[27]": {"molecular_target": "T27, PI3KC2g(h) (Homo sapiens, UniProt O75747)", "T27 construct": "purchased Eurofins Cerep SA (KinaseProfiler)", "protocol": "as §1"}, "[28]": {"molecular_target": "T28, Plk4(h) (Homo sapiens, UniProt O00444)", "T28 construct": "purchased Eurofins Cerep SA (KinaseProfiler)", "T28 sequence (O00444 whole entry)": "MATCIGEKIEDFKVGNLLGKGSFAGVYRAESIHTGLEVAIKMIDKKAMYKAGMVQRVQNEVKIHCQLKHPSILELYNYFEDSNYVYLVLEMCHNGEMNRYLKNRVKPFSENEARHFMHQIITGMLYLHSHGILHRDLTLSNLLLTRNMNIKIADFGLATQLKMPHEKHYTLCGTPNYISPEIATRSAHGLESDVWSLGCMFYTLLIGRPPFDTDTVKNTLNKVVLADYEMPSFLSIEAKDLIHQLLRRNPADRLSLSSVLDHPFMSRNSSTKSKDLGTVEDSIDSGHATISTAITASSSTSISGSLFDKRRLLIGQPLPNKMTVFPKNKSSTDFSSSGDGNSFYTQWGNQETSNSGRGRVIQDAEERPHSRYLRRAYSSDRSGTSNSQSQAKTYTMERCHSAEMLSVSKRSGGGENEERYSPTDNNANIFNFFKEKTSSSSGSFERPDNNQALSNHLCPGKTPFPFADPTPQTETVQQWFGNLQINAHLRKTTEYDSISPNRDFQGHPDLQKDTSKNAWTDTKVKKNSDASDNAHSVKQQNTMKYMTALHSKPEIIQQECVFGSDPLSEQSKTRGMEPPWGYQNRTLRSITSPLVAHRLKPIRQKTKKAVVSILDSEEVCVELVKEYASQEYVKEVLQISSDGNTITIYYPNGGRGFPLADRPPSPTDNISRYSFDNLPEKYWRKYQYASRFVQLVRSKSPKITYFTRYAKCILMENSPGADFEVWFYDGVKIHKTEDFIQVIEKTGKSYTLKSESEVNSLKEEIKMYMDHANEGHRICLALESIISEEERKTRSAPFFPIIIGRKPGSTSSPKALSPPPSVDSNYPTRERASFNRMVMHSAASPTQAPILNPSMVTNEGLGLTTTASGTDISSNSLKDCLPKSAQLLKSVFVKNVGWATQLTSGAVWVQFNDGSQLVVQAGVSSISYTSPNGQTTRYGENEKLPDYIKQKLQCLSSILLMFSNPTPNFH", "protocol": "as §1"}, "[29]": {"molecular_target": "T29, SAPK4(h) (Homo sapiens, UniProt O15264)", "T29 construct": "purchased Eurofins Cerep SA (KinaseProfiler)", "T29 sequence (O15264 whole entry)": "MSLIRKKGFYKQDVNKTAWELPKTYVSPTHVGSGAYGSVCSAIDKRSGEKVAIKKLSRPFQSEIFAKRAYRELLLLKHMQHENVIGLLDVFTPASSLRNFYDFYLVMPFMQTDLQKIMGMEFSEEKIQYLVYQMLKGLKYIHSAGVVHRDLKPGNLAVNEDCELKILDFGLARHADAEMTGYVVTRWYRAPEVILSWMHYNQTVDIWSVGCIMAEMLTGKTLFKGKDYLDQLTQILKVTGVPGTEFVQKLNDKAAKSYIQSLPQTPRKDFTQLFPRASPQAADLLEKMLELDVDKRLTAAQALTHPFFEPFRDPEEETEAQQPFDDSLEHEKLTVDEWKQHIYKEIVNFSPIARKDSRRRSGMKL", "protocol": "as §1"}, "[30]": {"molecular_target": "T30, Snk(h) (Homo sapiens, UniProt Q9NYY3)", "T30 construct": "purchased Eurofins Cerep SA (KinaseProfiler)", "protocol": "as §1"}, "[31]": {"molecular_target": "T31, TSSK1(h) (Homo sapiens, UniProt Q9BXA7)", "T31 construct": "purchased Eurofins Cerep SA (KinaseProfiler)", "protocol": "as §1"}, "[32]": {"molecular_target": "T32, TSSK4(h) (Homo sapiens, UniProt Q6SA08)", "T32 construct": "purchased Eurofins Cerep SA (KinaseProfiler)", "protocol": "as §1"}}, "data": [{"compound": "CN(C)Cc1cccc(Nc2ncc(Cl)c(-c3csc(C(=O)NN4CCOCC4)c3)n2)c1", "note": "[SKLB-D18, 4-(5-chloro-2-((3-((dimethylamino)methyl)phenyl)amino)pyrimidin-4-yl)-N-morpholinothiophene-2-carboxamide]", "values": [{"measurement": "inhibition at 1 µM", "setting": "[1]", "result": 58, "unit": "%"}, {"measurement": "inhibition at 1 µM", "setting": "[2]", "result": 72, "unit": "%"}, {"measurement": "inhibition at 1 µM", "setting": "[3]", "result": 36, "unit": "%"}, {"measurement": "inhibition at 1 µM", "setting": "[4]", "result": 58, "unit": "%"}, {"measurement": "inhibition at 1 µM", "setting": "[5]", "result": 55, "unit": "%"}, {"measurement": "inhibition at 1 µM", "setting": "[6]", "result": 57, "unit": "%"}, {"measurement": "inhibition at 1 µM", "setting": "[7]", "result": 47, "unit": "%"}, {"measurement": "inhibition at 1 µM", "setting": "[8]", "result": 53, "unit": "%"}, {"measurement": "inhibition at 1 µM", "setting": "[9]", "result": 55, "unit": "%"}, {"measurement": "inhibition at 1 µM", "setting": "[10]", "result": 69, "unit": "%"}, {"measurement": "inhibition at 1 µM", "setting": "[11]", "result": 9, "unit": "%"}, {"measurement": "inhibition at 1 µM", "setting": "[12]", "result": 16, "unit": "%"}, {"measurement": "inhibition at 1 µM", "setting": "[13]", "result": 5, "unit": "%"}, {"measurement": "inhibition at 1 µM", "setting": "[14]", "result": 32, "unit": "%"}, {"measurement": "inhibition at 1 µM", "setting": "[15]", "result": 13, "unit": "%"}, {"measurement": "inhibition at 1 µM", "setting": "[16]", "result": 23, "unit": "%"}, {"measurement": "inhibition at 1 µM", "setting": "[17]", "result": 48, "unit": "%"}, {"measurement": "inhibition at 1 µM", "setting": "[18]", "result": 2, "unit": "%"}, {"measurement": "inhibition at 1 µM", "setting": "[19]", "result": 68, "unit": "%"}, {"measurement": "inhibition at 1 µM", "setting": "[20]", "result": 46, "unit": "%"}, {"measurement": "inhibition at 1 µM", "setting": "[21]", "result": 14, "unit": "%"}, {"measurement": "inhibition at 1 µM", "setting": "[22]", "result": 2, "unit": "%"}, {"measurement": "inhibition at 1 µM", "setting": "[23]", "result": 59, "unit": "%"}, {"measurement": "inhibition at 1 µM", "setting": "[24]", "result": 34, "unit": "%"}, {"measurement": "inhibition at 1 µM", "setting": "[25]", "result": 45, "unit": "%"}, {"measurement": "inhibition at 1 µM", "setting": "[26]", "result": 14, "unit": "%"}, {"measurement": "inhibition at 1 µM", "setting": "[27]", "result": -7, "unit": "%"}, {"measurement": "inhibition at 1 µM", "setting": "[28]", "result": 38, "unit": "%"}, {"measurement": "inhibition at 1 µM", "setting": "[29]", "result": 53, "unit": "%"}, {"measurement": "inhibition at 1 µM", "setting": "[30]", "result": 28, "unit": "%"}, {"measurement": "inhibition at 1 µM", "setting": "[31]", "result": 60, "unit": "%"}, {"measurement": "inhibition at 1 µM", "setting": "[32]", "result": 36, "unit": "%"}]}]}
